Assay results as given in article PMC4823750, “Enoyl-CoA hydratase mediates polyhydroxyalkanoate mobilization in Haloferax mediterranei” (Scientific Reports, 2016).

Key:
[1] = target: T1, PhaJ1 (PhaJ1-His6; HFX_5217) (Haloferax mediterranei, UniProt A0ACN4YM66); assay: HPLC of hydration product; assay type: biochemical; conditions: 0.25 mM crotonyl-CoA; 2 M KCl, 100 mM Tris-HCl pH 7.5, 5 mM MgCl2, 45 °C, 30 min
T1 construct: gene maoC; N-terminal His6 tag kept; 219 residues (native); expressed from pTA05-phaJ1 in Haloferax volcanii H1424, Ni-agarose purified

[2] = target: T1, PhaJ1 (PhaJ1-His6; HFX_5217); assay: HPLC of dehydration product; assay type: biochemical; conditions: 0.25 mM racemic 3HB-CoA; 2 M KCl, 100 mM Tris-HCl pH 7.5, 5 mM MgCl2, 45 °C, 30 min

T1 sequence (A0ACN4YM66 entry or part of it): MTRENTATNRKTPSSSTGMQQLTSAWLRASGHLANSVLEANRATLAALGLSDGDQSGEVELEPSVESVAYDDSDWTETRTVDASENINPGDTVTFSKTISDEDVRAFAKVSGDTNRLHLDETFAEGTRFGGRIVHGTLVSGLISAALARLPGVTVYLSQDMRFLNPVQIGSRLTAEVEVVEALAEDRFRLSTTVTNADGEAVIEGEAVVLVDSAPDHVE

SMILES | HPLC of hydration product [1] | HPLC of dehydration product [2]
C/C=C/C(=O)SCCNC(=O)CCNC(=O)[C@H](O)C(C)(C)COP(=O)(O)OP(=O)(O)OC[C@H]1O[C@@H](n2cnc3c(N)ncnc32)[C@H](O)[C@@H]1OP(=O)(O)O [crotonyl-CoA] | major crotonyl-CoA was converted into 3HB-CoA by PhaJ1 | 
CC(O)CC(=O)SCCNC(=O)CCNC(=O)[C@H](O)C(C)(C)COP(=O)(O)OP(=O)(O)OC[C@H]1O[C@@H](n2cnc3c(N)ncnc32)[C@H](O)[C@@H]1OP(=O)(O)O (some centres unmarked) [3-hydroxybutyryl-CoA] |  | minor 3HB-CoA was converted into crotonyl-CoA by PhaJ1
